In patent publication US4931498A, “Immobilized artificial membranes” (Purdue Research Foundation, priority 1988, dated 1990):
Square brackets hold non-standard residues; d marks the D form. Ends that are not written are not given here. Peptide text beside a SMILES is read from it.

Experiments:
[1] = HPLC elution on Nucleosil-lecithin (immobilized artificial membrane) column; assay type: physicochemical; set-up: Elution times: unit not given beside the values; settings: for Elution times: Nucleosil-lecithin column, mobile phase isotonic buffered saline at 1.0 ml/min, detection at 260 nm; for Elution Volumes on Nucleosil-Lecithin, Mobile Phase PBS: mobile phase isotonic phosphate buffered saline (pH 7.34); for Elution Volumes on Nucleosil-Lecithin, Mobile Phase PBS / Elution Volumes on Nucleosil-Lecithin, Mobile Phase 0.1% TFA: detection 220 nm; for Elution Volumes on Nucleosil-Lecithin, Mobile Phase 0.1% TFA: peptides dissolved in 0.1% aqueous TFA
Description: A 4 mm×100 mm HPLC column was packed with about one gram of Nucleosil-lecithin (pooled from several preparations above) using a Shandon column packer. Excess Nucleosil-lecithin (1.45 grams) was suspended in 15 ml of degassed methanol and then sonicated 5 minutes to assure particle dispersion. The dispersion was transferred to the 30-ml slurry reservoir on the column packer, and 15 ml of degassed methanol was added to fill the reservoir. The column was packed at 4500 psi.
The HPLC elution properties of the Nucleosil-lecithin column were evaluated.
Separation of 2-deoxycytidine (C), 2-deoxyuridine (U), 2'-deoxyguanosine (G) and 2'-deoxyadenosine (A) was effected using isotonic buffered saline as the mobile phase at 1.0 ml/min with detection at 260 nm. Elution times were as follows: C - 1.175; U - 1.465; G - 1.730; and A - 2.090.
FIG. 11 is a chromatogram for a mixture of Peptides I and II, dissolved in 0.1% aqueous trifluoracetic acid (TFA) and detected at 220 nm. In FIG. 11 the mobile phase was isotonic phosphate buffered saline (pH 7.34). FIG. 12 is a chromatogram for a mixture of Peptides III and IV, dissolved in 0.1% aqueous trifluoracetic acid (TFA) and detected at 220 nm. In FIG. 12 the mobile phase was 0.1% TFA.

[2] = HPLC elution on cholesterol-loaded Nucleosil-lecithin column; assay type: physicochemical; settings: for Elution Volumes by Mobile Phase, H2O: mobile phase water
Description: The Nucleosil-lecithin chromatography support material was then "loaded" with cholesterol in situ using the following procedure.
A solution of 80 ml of 1 mg/ml cholesterol in MeOH:isopropanol/8:2 was pumped through the Nucleosil-lecithin using a Bendex pump. […] Approximately […] was recovered in the effluent showing that 40 mg of cholesterol was loaded onto the Nucleosil-lecithin column. This is approximately 50% by weight of the bonded phase. The Nucleosil-lecithin/cholesterol column containing MeOH/isopropanol was attached to the HPLC and eluted with water (approximately 100 ml). The mobile phase was changed to 0.1% TFA and peptides dissolved in 0.1% TFA were injected to determine the elution volumes. The mobile phase was changed to water and the peptides were reinjected after the column was equilibrated with 100 ml of water to determine the elution volumes. The column was washed with PBS buffer (100 ml) and the peptides were again injected to determine elution volumes using PBS as the mobile phase.

Elution times [1]	Elution Volumes by Mobile Phase, 0.1% TFA [2]	Elution Volumes by Mobile Phase, PBS [2]	Elution Volumes by Mobile Phase, H2O [2]	Elution Volumes on Nucleosil-Lecithin, Mobile Phase PBS [1]	Elution Volumes on Nucleosil-Lecithin, Mobile Phase 0.1% TFA [1]	Compound
2.090	–	–	–	–	–	Nc1ncnc2c1ncn2[C@H]1C[C@H](O)[C@@H](CO)O1 [2'-deoxyadenosine]
1.730	–	–	–	–	–	Nc1nc2c(ncn2[C@H]2C[C@H](O)[C@@H](CO)O2)c(=O)[nH]1 [2'-deoxyguanosine]
–	5.0	6.5	3.0	–	–	CSCC[C@@H](N)C(=O)N1CCC[C@@H]1C(=O)N[C@H](CO)C(=O)N[C@H](Cc1c[nH]c2ccccc12)C(=O)N[C@@H](C(=O)NCC(=O)NCC(=O)N[C@H](CS)C(=O)O)[C@H](C)O [Peptide VIII, NH2 d,M-d,P-d,S-d,W-d,T-G-G-d,C--COOH] (H-[dM][dP][dS][dW][dT]GG[dC]-OH)
–	1.3	3.2	0.8	3.8	–	Ac-HIFNQ-NH2 [Peptide VII, NacH-I-F-N-QNH2]
–	1.0	4.2	0.8	5.8	–	HIFNQ-NH2 [Peptide VI, NH2 H-I-F-N-QNH2]
–	5.3	6.9	9.2	10.0	9.4	MPSWTGGC [Peptide III, NH2 M-P-S-W-T-G-G-C--COOH]
–	5.3	7.9	7.3	13.1	7.3	YGSTWPGC [Peptide I, NH2 Y-G-S-T-W-P-G-C--COOH]

The next lines start with the compound.

Compound	Elution times [1]	Elution Volumes by Mobile Phase, 0.1% TFA [2]	Elution Volumes by Mobile Phase, PBS [2]	Elution Volumes by Mobile Phase, H2O [2]	Elution Volumes on Nucleosil-Lecithin, Mobile Phase PBS [1]	Elution Volumes on Nucleosil-Lecithin, Mobile Phase 0.1% TFA [1]
Nc1ccn([C@H]2C[C@H](O)[C@@H](CO)O2)c(=O)n1 [2-deoxycytidine]	1.175	–	–	–	–	–
O=c1ccn([C@H]2C[C@H](O)[C@@H](CO)O2)c(=O)[nH]1 [2-deoxyuridine]	1.465	–	–	–	–	–
CGYGSTWP [Peptide V, NH2 C-G-Y-G-S-T-W-P--COOH]	–	6.6	–	–	–	–
MPSWTGG [Peptide IV, NH2 M-P-S-W-T-G-G-COOH]	–	2.9	5.0	4.9	4.2	4.1
YGSTWPG [Peptide II, NH2 Y-G-S-T-W-P-G-COOH]	–	2.7	4.8	6.6	7.6	3.1
